From patent US20240360091A1, “GLUN2B-SUBUNIT SELECTIVE ANTAGONISTS OF THE N-METHYL-D-ASPARTATE RECEPTORS WITH ENHANCED POTENCY AT ACIDIC PH” (Emory University, priority 2021, published 2024)
Where two headings read alike, the source gives them in different places.

Assays:
[1] = system: MCAO model of transient ischemia in mice; assay: In vivo model of transient focal ischemia, middle cerebral artery occlusion (MCAO); set-up: species or system mouse; settings: for infarct volume: 24 hours post reperfusion
Description: All protocols involving animals were approved by the Georgia State University IACUC, an AAALAC accredited program, and was under the supervision of a licensed veterinarian. Mice were group housed, provided nestlets and shelters with access to food pellets and water ad libitum under a 12-hour light/dark cycle. Mice were brought to a separate room and housed for at least 30 min prior to initiation of the surgery.
Mice (C57B16, >90 days old, Jackson Labs) were subjected to transient (60 min) middle cerebral artery occlusion (MCAO) and the infarct volume measured 24 hours post reperfusion, similar as previously described (Yuan, et al., Neuron, 2015, 85(6):1305-1318). Male mice were used for this experiment to reduce potential confound by progesterone variation through estrous cycles, which can have neuroprotective actions. Briefly, transient ischemia was induced in anesthetized (2% isoflurane/98% O2) mice by insertion of an intraluminal suture into the MCA for 60 minutes (Junge, et al., Proc NatlAcad Sci USA, 2003, 100: 13019-13024). The body temperature of each mouse was monitored with a rectal thermometer and maintained at 37° C. through use of a homeothermic blanket. Changes in local cerebral blood flow were monitored with a laser Doppler flowmeter probe (Perimed) secured via glue to the skull 4-6 mm lateral and 2 mm posterior of bregma. An 11-mm 5-0 Dermalon or Look (SP185) black nylon non-absorbable suture with the tip flame-rounded was introduced into the left internal carotid artery through the external carotid artery stump up to 10.5-11 mm of suture insertion. Only mice with a reduction in blood flow to <20% for 60 min and with recovery of blood flow to >90% following removal of the suture were progressed to complete the study. Following the occlusion period, mice were placed back in their cages on a warming blanket (37° C.) for several hours and monitored for righting reflex and ability to ambulate upon a gentle touch. At 24 hours post occlusion, mice were euthanized by isoflurane overdose, the brain quickly removed and cut into 2 mm sections and incubated in 2% 2,3,5-triphenyltetrazolium chloride (TTC) in phosphate buffered saline (pH 7.4) at 37° C. for 20 min, then placed at 4° C. for imaging. The infarct area was then measured using the NIH IMAGE software (Scion Corporation, Beta 4.0.2 release). The lesioned area of each section was determined by digital threshold reductions in TTC staining to ≤20% lower intensity than that observed in the contralateral cortex. The infarct region was then manually outlined with a curser and the cubic volume of the infarct determined for each slice, then summed across all four slices from each animal to obtain total infarct volume. […]

GluN2C = GluN2C (Homo sapiens (Human), UniProt Q14957); assay: Two electrode voltage-clamp recordings, single concentration, GluN2C; assay type: cell-based; settings: pH 6.9
GluN2C, sequence (Q14957 20-1233, other chains not shown): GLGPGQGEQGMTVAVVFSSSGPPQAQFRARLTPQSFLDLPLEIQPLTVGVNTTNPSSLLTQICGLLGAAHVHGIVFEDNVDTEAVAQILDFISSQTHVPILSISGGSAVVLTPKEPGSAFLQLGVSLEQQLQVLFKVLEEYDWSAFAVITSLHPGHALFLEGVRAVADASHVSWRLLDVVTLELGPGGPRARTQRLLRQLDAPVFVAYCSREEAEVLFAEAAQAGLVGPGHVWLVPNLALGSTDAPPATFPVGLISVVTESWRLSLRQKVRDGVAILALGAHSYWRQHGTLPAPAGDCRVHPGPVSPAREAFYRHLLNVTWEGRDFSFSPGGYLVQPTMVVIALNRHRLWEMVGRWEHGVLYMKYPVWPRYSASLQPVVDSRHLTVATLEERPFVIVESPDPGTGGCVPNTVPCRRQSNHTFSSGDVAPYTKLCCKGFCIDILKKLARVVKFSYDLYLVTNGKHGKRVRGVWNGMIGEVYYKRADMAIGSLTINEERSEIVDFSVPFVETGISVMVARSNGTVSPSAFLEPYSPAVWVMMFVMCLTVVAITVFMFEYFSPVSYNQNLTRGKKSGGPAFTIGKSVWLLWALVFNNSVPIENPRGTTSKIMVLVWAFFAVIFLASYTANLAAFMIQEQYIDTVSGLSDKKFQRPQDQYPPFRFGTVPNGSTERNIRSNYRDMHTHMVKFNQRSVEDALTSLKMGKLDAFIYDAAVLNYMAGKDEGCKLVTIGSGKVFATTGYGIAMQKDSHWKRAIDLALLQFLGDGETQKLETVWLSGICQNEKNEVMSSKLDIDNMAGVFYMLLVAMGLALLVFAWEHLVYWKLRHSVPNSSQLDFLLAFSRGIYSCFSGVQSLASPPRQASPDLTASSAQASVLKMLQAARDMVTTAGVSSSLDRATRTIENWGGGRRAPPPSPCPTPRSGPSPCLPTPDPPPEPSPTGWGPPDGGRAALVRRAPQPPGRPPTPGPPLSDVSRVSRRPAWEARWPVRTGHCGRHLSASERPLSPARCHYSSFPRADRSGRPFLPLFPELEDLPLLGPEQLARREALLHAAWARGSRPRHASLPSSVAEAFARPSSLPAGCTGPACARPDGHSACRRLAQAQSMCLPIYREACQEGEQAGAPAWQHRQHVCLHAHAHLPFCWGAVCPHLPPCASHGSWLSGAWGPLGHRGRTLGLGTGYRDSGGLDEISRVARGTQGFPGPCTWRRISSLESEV

in vivo = settings: BALB/c, mouse, plasma
Description: (§1) Formulation for pharmacokinetic studies used 2% or 10% N′,N′-dimethylacetamide, 10% propylene glycol, and 30% 2-hydroxypropyl-beta-cyclodextrin in water and a dose volume of 10 mL/kg (all routes of administration).
Briefly, mice were administered a 2 mg/kg or a 5 mg/kg dose (n=3 each) by IP injection (10 mL/kg dose volume) and blood samples collected at 0.08, 0.25, 0.5, 1, 2, 4, 8 and 24 hours post dose in tubes containing sodium heparin on ice. 100 μL of plasma was combined with 50 μL of internal standard (haloperidol, 10 μg/mL) and tubes were then spun at 4000 g for 10 min (4° C.) and plasma transferred to clean tubes and stored at −80° C. until analysis.
Blood samples were collected on ice in sodium heparin tubes at 0.08, 0.25, 0.5, 1, 2, 4, 8, and 24 hours post dose. Samples were prepared and analyzed as described above except here the internal standard was fluconazole (10 μg/mL).

[2] = Pharmacokinetics in the brain compartment compared to plasma in mice; assay type: in vivo; settings: BALB/c, mouse; for Cmax at 1 h: iv
Description: as §1
Here, brain samples were first washed in deionized water to remove blood, the weight recorded, then transferred into fresh 1 mL water, homogenized, and stored at −80° C. until analysis. The ratio of compound in brain (g) compared to blood (mL) was then calculated.

GluN2D = GluN2D (Homo sapiens (Human), UniProt O15399); assay: Two electrode voltage-clamp recordings, single concentration, GluN2D; assay type: cell-based; settings: pH 6.9
GluN2D, sequence (O15399 28-1336, other chains not shown): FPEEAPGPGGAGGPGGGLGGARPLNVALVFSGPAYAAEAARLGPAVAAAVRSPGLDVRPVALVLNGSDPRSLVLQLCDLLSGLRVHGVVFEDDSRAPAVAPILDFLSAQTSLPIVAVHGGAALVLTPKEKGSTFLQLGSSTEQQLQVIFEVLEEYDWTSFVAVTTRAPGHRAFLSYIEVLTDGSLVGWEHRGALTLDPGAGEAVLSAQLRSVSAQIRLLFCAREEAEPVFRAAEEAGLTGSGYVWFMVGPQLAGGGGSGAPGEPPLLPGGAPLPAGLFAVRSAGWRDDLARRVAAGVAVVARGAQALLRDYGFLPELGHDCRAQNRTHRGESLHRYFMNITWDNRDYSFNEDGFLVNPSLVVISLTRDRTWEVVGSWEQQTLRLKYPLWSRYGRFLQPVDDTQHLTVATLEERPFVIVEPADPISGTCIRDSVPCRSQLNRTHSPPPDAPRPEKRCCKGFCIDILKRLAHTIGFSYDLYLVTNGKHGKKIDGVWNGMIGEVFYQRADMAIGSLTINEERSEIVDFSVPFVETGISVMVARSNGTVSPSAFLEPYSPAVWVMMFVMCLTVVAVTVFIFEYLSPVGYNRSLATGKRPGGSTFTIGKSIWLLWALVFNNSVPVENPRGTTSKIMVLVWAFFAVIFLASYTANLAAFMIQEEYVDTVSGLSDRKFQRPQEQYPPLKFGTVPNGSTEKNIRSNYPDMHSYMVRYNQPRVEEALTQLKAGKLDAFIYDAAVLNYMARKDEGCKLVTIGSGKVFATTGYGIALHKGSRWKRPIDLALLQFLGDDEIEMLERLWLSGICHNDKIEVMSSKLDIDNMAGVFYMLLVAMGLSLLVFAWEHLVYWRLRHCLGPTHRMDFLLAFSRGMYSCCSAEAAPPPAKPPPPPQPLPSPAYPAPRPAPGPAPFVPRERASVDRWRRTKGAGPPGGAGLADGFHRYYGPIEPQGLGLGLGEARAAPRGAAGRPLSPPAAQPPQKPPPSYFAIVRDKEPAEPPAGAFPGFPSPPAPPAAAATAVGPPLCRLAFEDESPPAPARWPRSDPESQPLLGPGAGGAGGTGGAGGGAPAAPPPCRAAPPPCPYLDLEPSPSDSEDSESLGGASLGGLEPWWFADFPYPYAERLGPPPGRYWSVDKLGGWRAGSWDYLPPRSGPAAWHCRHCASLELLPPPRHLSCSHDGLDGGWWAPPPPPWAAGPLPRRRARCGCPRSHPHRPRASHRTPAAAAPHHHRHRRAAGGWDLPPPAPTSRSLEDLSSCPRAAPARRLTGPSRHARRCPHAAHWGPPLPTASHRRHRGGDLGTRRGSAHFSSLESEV

GluN2A = GluN2A (Homo sapiens (Human), UniProt Q12879); assay: Two electrode voltage-clamp recordings, single concentration, GluN2A; assay type: cell-based; settings: pH 6.9
GluN2A, sequence (Q12879 23-1464, other chains not shown): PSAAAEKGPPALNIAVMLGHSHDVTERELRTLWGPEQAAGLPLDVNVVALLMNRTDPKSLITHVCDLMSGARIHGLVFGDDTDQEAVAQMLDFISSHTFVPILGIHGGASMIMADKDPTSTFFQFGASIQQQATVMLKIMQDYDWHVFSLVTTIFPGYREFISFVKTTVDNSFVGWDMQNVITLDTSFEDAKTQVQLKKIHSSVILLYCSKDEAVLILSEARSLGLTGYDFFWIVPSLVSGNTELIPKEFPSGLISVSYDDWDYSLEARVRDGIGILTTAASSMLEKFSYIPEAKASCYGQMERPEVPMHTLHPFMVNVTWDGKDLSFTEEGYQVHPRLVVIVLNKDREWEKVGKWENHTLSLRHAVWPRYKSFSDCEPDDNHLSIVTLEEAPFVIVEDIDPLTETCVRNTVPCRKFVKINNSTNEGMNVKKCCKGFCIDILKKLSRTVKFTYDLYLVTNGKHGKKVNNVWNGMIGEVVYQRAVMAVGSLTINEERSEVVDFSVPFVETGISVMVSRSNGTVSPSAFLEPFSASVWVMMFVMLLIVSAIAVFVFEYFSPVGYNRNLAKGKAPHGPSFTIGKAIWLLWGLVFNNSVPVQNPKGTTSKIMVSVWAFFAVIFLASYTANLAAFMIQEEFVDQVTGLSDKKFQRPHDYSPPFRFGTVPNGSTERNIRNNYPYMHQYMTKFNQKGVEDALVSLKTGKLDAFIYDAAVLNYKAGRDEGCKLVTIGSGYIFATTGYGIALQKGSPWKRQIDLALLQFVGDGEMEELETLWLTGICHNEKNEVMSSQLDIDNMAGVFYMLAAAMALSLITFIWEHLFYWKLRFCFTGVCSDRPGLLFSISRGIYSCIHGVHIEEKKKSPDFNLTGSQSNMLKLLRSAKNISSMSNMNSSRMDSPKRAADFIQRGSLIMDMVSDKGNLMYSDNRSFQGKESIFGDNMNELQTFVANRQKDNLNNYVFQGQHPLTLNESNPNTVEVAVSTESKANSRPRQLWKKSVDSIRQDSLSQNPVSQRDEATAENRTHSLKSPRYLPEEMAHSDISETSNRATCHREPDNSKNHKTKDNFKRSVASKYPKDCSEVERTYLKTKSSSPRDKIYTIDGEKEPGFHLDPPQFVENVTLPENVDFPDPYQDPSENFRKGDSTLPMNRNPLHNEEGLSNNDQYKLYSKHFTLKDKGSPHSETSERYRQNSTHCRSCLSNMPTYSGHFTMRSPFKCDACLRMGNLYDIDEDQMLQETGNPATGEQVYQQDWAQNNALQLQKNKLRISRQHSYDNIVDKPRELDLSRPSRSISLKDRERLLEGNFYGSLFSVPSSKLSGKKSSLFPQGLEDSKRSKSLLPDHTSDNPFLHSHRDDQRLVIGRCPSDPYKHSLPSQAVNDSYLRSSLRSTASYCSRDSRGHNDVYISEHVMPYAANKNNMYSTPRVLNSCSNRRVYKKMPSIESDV

[3] = Liver microsome stability, mouse; assay type: in vitro ADME; settings: 1 μM, with cofactors, one-hour incubation at 37° C.
Description: Metabolic stability was assessed using human and mouse liver microsomes (Xenotech, USA). The final composition of the assay included 1 μM of the test compound or reference standards (imipramine and diclofenac sodium) prepared from DMSO or acetonitrile stock, so that the final concentration of DMSO and acetonitrile was 0.2% and 0.8%, respectively. The test compound was incubated with 0.5 mg/mL microsomal protein without (100 mM potassium phosphate buffer alone, pH 7.4) or with cofactors (5.0 mM glucose-6-phosphate, 0.06 U glucose-6-phosphate dehydrogenase, 2.0 mM MgCl2, 1.0 mM NADP^+/NADPH). The test compound and standards were incubated at 37° C. with human and mouse liver microsomes; aliquots of the reaction mixture (100 μL) were removed at 0, 5, 15, 30, 60 and 120 min. The reaction in the aliquots was stopped by the addition of 2.5 mL tert-butyl methyl ether and the samples were subjected to shaking for 15 min. […] The percent of the test compound remaining after the specified incubation period was calculated with respect to the peak areas of the test compound at time 0 min.
The compound and standards were incubated with human and mouse liver microsomes with or without cofactors, and the samples were extracted and analyzed using LC-MS/MS, as described above.

[4] = % current remaining after 3 μM compound

Compound: O=C1CCc2cc(OC[C@H](O)CN3CCN(c4ccc(C(F)(F)F)cc4)CC3)ccc2N1 [NP10679]
- infarct volume ([1]; 5 mg/kg IP): 56±6.6 mm^3
- infarct volume ([1]; 10 mg/kg IP): 49±3.0 mm^3
- maximum infarct volume reduction ([1]; IP dose prior to 60 min MCAO): 52%
- ED50 ([1]; Mus musculus, 1 h, IP dose prior to 60 min MCAO, read-out: ED50 for infarct volume reduction): 1 mg/kg
- off-target inhibition against GluN2C (GluN2C; 3 μM): no noticeable off-target inhibition
- GluN2C % residual (GluN2C; [4]): 100.1 (pH 6.9) %
- AUC(0-t) (in vivo; iv, 3 mg/kg): 17800 ng·h/mL
- Cmax (in vivo; iv, 3 mg/kg): 2350 ng/mL
- Tmax (in vivo; iv, 3 mg/kg): 0.08 h
- Vd (in vivo; iv, 3 mg/kg): 1.59 L/kg
- clearance (in vivo; iv, 3 mg/kg): 2.44 mL/min/kg
- half-life (in vivo; iv, 3 mg/kg): 8.56 h
- bioavailability (in vivo; oral, 10 mg/kg): 75.7%
- AUC(0-inf) (in vivo; po, 10 mg/kg): 49500 ng·h/mL
- AUC(0-t) (in vivo; po, 10 mg/kg): 45000 ng·h/mL
- Cmax (in vivo; po, 10 mg/kg): 3600 ng/mL
- Tmax (in vivo; po, 10 mg/kg): 1 h
- half-life (in vivo; po, 10 mg/kg): 7.06 h
- AUC(0-inf) (in vivo; male, ip, 2 mg/kg): 5690 ng·h/mL
- AUC(0-t) (in vivo; male, ip, 2 mg/kg): 4750 ng·h/mL
- Cmax (in vivo; male, ip, 2 mg/kg): 581 ng/mL
- Tmax (in vivo; male, ip, 2 mg/kg): 0.5 h
- half-life (in vivo; male, ip, 2 mg/kg): 9.9 h
- AUC(0-inf) (in vivo; male, ip, 5 mg/kg): 13100 ng·h/mL
- AUC(0-t) (in vivo; male, ip, 5 mg/kg): 11800 ng·h/mL
- Cmax (in vivo; male, ip, 5 mg/kg): 1430 ng/mL
- Tmax (in vivo; male, ip, 5 mg/kg): 0.5 h
- half-life (in vivo; male, ip, 5 mg/kg): 7.5 to 9.9 h
- concentration at 1 h ([2]; brain, intraperitoneal, 5 mg/kg, 5 mg/kg IP, 1 hour post dosing, read-out: estimated free drug concentration in the brain): 60 to 134 nM
- concentration at 2 h ([2]; brain, intraperitoneal, 5 mg/kg, 5 mg/kg IP, 2 hours post dosing, read-out: estimated free drug concentration in the brain): 51 to 103 nM
- concentration at 4 h ([2]; brain, intraperitoneal, 5 mg/kg, 5 mg/kg IP, 4 hours post dosing, read-out: estimated free drug concentration in the brain): 33 to 66 nM
- concentration at 8 h ([2]; brain, intraperitoneal, 5 mg/kg, 5 mg/kg IP, 8 hours post dosing, read-out: estimated free drug concentration in the brain): 28 to 56 nM
- concentration at 1 h ([2]; brain, intravenous, 3 mg/kg, 3 mg/kg IV, Study 1, 1 hour, read-out: Brain Conc.): 1740 ng/g
- concentration at 1 h ([2]; brain, intravenous, 3 mg/kg, 3 mg/kg IV, Study 2A (2% DMA formulation), 1 hour, read-out: Brain Conc.): 1420 ng/g
- concentration at 1 h ([2]; brain, intravenous, 3 mg/kg, 3 mg/kg IV, Study 2B, 1 hour, read-out: Brain Conc.): 2100 ng/g
- Cmax at 1 h ([2]; plasma, 3 mg/kg, 3 mg/kg IV, Study 1, 1 hour): 2300 ng/mL
- Cmax at 1 h ([2]; plasma, 3 mg/kg, 3 mg/kg IV, Study 2A (2% DMA formulation), 1 hour): 600 ng/mL
- Cmax at 1 h ([2]; plasma, 3 mg/kg, 3 mg/kg IV, Study 2B, 1 hour): 817 ng/mL
- Tmax ([2]; plasma, 3 mg/kg IV, Study 1): 1 h
- off-target inhibition against GluN2D (GluN2D; 3 μM): no noticeable off-target inhibition
- GluN2D % residual (GluN2D; [4]): 98.3 (pH 6.9) %
- off-target inhibition against GluN2A (GluN2A; 3 μM): no noticeable off-target inhibition
- GluN2A % residual (GluN2A; [4]): 99.0 (pH 6.9) %
- percent remaining in mouse liver microsomes [3]: 54%
